Measurements as given in patent publication US20140343000A1 (priority 2011, published 2014).
Counter-ions that a name gives are not always drawn.

System: recombinant NL4-3 virus (Renilla luciferase in nef, Gag P373S; NLRluc) in MT-2 cells
Experiment: whole plant or invertebrate
Type: cell-based, HIV
Settings: Renilla, NL43
Method in brief: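 Luciferase signal is the read-out: after 4-5 days of infection in the presence of serially diluted compound, MT-2 cells are lysed with a premix of lysis buffer, luciferase reagent and Stop & Glo substrate, and luminescence is read immediately.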

`C=C(C)[C@@H]1CC[C@]2(NCCN3CCC(C(=O)N(C)C)CC3)CC[C@]3(C)[C@H](CC[C@@H]4[C@@]5(C)CC=C(c6ccc(C(=O)O)cc6)C(C)(C)[C@@H]5CC[C@]43C)[C@@H]12` [Example 171, 4-((1R,3aS,5aR,5bR,7aR,11aS,11bR,13aR,13bR)-3a-(2-(4-(dimethylcarbamoyl)piperidin-1-yl)ethylamino)-5a,5b,8,8,11a-pentamethyl-1-(prop-1-en-2-yl)-2,3,3a,4,5,5a,5b,6,7,7a,8,11,11a,11b,12,13,13a,13b-octadecahydro-1H-cyclopenta[a]chrysen-9-yl)benzoic acid] and `C=C(C)[C@@H]1CC[C@]2(N3CC3)CC[C@]3(C)[C@H](CC[C@@H]4[C@@]5(C)CC=C(c6ccc(C(=O)O)cc6)C(C)(C)[C@@H]5CC[C@]43C)[C@@H]12` [Example 173, 4-((1R,3aS,5aR,5bR,7aR,11aS,11bR,13bR)-3a-(aziridin-1-yl)-5a,5b,8,8,11a-pentamethyl-1-(prop-1-en-2-yl)-2,3,3a,4,5,5a,5b,6,7,7a,8,11,11a,11b,12,13,13a,13b-octadecahydro-1H-cyclopenta[a]chrysen-9-yl)benzoic acid] cannot be ordered by EC50: under 0.1 µM for the first, under 0.1 µM for the second.

Same assay, conditions: Renilla, NL43, luciferase activity in cells infected for 4-5 days with NLRluc recombinants, serial dilutions of inhibitor; class symbols (key in Table 1); read-out: EC50

`C=C(C)[C@@H]1CC[C@]2(NCCN3CCSCC3)CC[C@]3(C)[C@H](CC[C@@H]4[C@@]5(C)CC=C(c6ccc(C(=O)O)cc6)C(C)(C)[C@@H]5CC[C@]43C)[C@@H]12` [Example 168, 4-((1R,3aS,5aR,5bR,7aR,11aS,11bR,13aR,13bR)-5a,5b,8,8,11a-pentamethyl-1-(prop-1-en-2-yl)-3a-(2-thiomorpholinoethylamino)-2,3,3a,4,5,5a,5b,6,7,7a,8,11,11a,11b,12,13,13a,13b-octadecahydro-1H-cyclopenta[a]chrysen-9-yl)benzoic acid] and `C=C(C)[C@@H]1CC[C@]2(NCCN3CCC(F)(F)CC3)CC[C@]3(C)[C@H](CC[C@@H]4[C@@]5(C)CC=C(c6ccc(C(=O)O)cc6)C(C)(C)[C@@H]5CC[C@]43C)[C@@H]12` [Example 172] cannot be ordered by EC50: under 0.1 µM for the first, under 0.1 µM for the second.

`C=C(C)[C@@H]1CC[C@]2(NCCCN(C)C)CC[C@]3(C)[C@H](CC[C@@H]4[C@@]5(C)CC=C(c6ccc(C(=O)O)cc6)C(C)(C)[C@@H]5CC[C@]43C)[C@@H]12` [Example 169, 4-((1R,3aS,5aR,5bR,7aR,11aS,11bR,13aR,13bR)-3a-(3-(dimethylamino)propylamino)-5a,5b,8,8,11a-pentamethyl-1-(prop-1-en-2-yl)-2,3,3a,4,5,5a,5b,6,7,7a,8,11,11a,11b,12,13,13a,13b-octadecahydro-1H-cyclopenta[a]chrysen-9-yl)benzoic acid] and `C=C(C)[C@@H]1CC[C@]2(NCCF)CC[C@]3(C)[C@H](CC[C@@H]4[C@@]5(C)CC=C(c6ccc(C(=O)O)cc6)C(C)(C)[C@@H]5CC[C@]43C)[C@@H]12` [Example 179, 4-((1R,3aS,5aR,5bR,7aR,11aS,11bR,13aR,13bR)-3a-((2-fluoroethyl)amino)-5a,5b,8,8,11a-pentamethyl-1-(prop-1-en-2-yl)-2,3,3a,4,5,5a,5b,6,7,7a,8,11,11a,11b,12,13,13a,13b-octadecahydro-1H-cyclopenta[a]chrysen-9-yl)benzoic acid] cannot be ordered by EC50: under 0.1 µM for the first, under 0.1 µM for the second.

`C=C(C)[C@@H]1CC[C@]2(NCCN3CCC(C(=O)O)CC3)CC[C@]3(C)[C@H](CC[C@@H]4[C@@]5(C)CC=C(c6ccc(C(=O)O)cc6)C(C)(C)[C@@H]5CC[C@]43C)[C@@H]12` [Example 170, 1-(2-(((1R,3aS,5aR,5bR,7aR,11aS,11bR,13aR,13bR)-9-(4-carboxyphenyl)-5a,5b,8,8,11a-pentamethyl-1-(prop-1-en-2-yl)-2,3,3a,4,5,5a,5b,6,7,7a,8,11,11a,11b,12,13,13a,13b-octadecahydro-1H-cyclopenta[a]chrysen-3a-yl)amino)ethyl)piperidine-4-carboxylic acid] and `C=C(C)[C@@H]1CC[C@]2(NCC)CC[C@]3(C)[C@H](CC[C@@H]4[C@@]5(C)CC=C(c6ccc(C(=O)O)cc6)C(C)(C)[C@@H]5CC[C@]43C)[C@@H]12` [Example 180, 4-((1R,3aS,5aR,5bR,7aR,11aS,11bR,13aR,13bR)-3a-(ethylamino)-5a,5b,8,8,11a-pentamethyl-1-(prop-1-en-2-yl)-2,3,3a,4,5,5a,5b,6,7,7a,8,11,11a,11b,12,13,13a,13b-octadecahydro-1H-cyclopenta[a]chrysen-9-yl)benzoic acid] cannot be ordered by EC50: under 0.1 µM for the first, under 0.1 µM for the second.

`C=C(C)[C@@H]1CC[C@]2(N(CCN3CCS(=O)(=O)CC3)C(C)=O)CC[C@]3(C)[C@H](CC[C@@H]4[C@@]5(C)CC=C(c6ccc(C(=O)O)cc6)C(C)(C)[C@@H]5CC[C@]43C)[C@@H]12` [Example 178, 4-((1R,3aS,5aR,5bR,7aR,11aS,11bR,13aR,13bR)-3a-(acetyl(2-(1,1-dioxido-4-thiomorpholinyl)ethyl)amino)-1-isopropenyl-5a,5b,8,8,11a-pentamethyl-2,3,3a,4,5,5a,5b,6,7,7a,8,11,11a,11b,12,13,13a,13b-octadecahydro-1H-cyclopenta[a]chrysen-9-yl)benzoic acid] and `C=C(C)[C@@H]1CC[C@]2(NCC(C)C)CC[C@]3(C)[C@H](CC[C@@H]4[C@@]5(C)CC=C(c6ccc(C(=O)O)cc6)C(C)(C)[C@@H]5CC[C@]43C)[C@@H]12` [Example 181, 4-((1R,3aS,5aR,5bR,7aR,11aS,11bR,13aR,13bR)-3a-(isobutylamino)-5a,5b,8,8,11a-pentamethyl-1-(prop-1-en-2-yl)-2,3,3a,4,5,5a,5b,6,7,7a,8,11,11a,11b,12,13,13a,13b-octadecahydro-1H-cyclopenta[a]chrysen-9-yl)benzoic acid] cannot be ordered by EC50: under 0.1 µM for the first, under 0.1 µM for the second.

Compared with `C=C(C)[C@@H]1CC[C@]2(NCCC(F)(F)F)CC[C@]3(C)[C@H](CC[C@@H]4[C@@]5(C)CC=C(c6ccc(C(=O)O)cc6)C(C)(C)[C@@H]5CC[C@]43C)[C@@H]12` [Example 182, 4-((1R,3aS,5aR,5bR,7aR,11aS,11bR,13aR,13bR)-5a,5b,8,8,11a-pentamethyl-1-(prop-1-en-2-yl)-3a-((3,3,3-trifluoropropyl)amino)-2,3,3a,4,5,5a,5b,6,7,7a,8,11,11a,11b,12,13,13a,13b-octadecahydro-1H-cyclopenta[a]chrysen-9-yl)benzoic acid], `C=C(C)[C@@H]1CC[C@]2(Nc3nc(C)c(C)s3)CC[C@]3(C)[C@H](CC[C@@H]4[C@@]5(C)CC=C(c6ccc(C(=O)O)cc6)C(C)(C)[C@@H]5CC[C@]43C)[C@@H]12` [Example 183, 4-((1R,3aS,5aR,5bR,7aR,11aS,11bR,13aR,13bR)-3a-(4,5-dimethylthiazol-2-ylamino)-5a,5b,8,8,11a-pentamethyl-1-(prop-1-en-2-yl)-2,3,3a,4,5,5a,5b,6,7,7a,8,11,11a,11b,12,13,13a,13b-octadecahydro-1H-cyclopenta[a]chrysen-9-yl)benzoic acid] is lower in EC50: over 0.1 µM for the first, under 0.1 µM for the second.

Same assay, conditions: Renilla, NL43, luciferase activity in cells infected for 4-5 days with NLRluc recombinants, serial dilutions of inhibitor; numeric values; read-out: EC50

Compared with `C=C(C)[C@@H]1CC[C@]2(N(CCN3CCCC3)CCN3CCCC3)CC[C@]3(C)[C@H](CC[C@@H]4[C@@]5(C)CC=C(c6ccc(C(=O)O)cc6)C(C)(C)[C@@H]5CC[C@]43C)[C@@H]12` [Example 167, 4-((1R,3aS,5aR,5bR,7aR,11aS,11bR,13aR,13bR)-3a-(bis(2-(pyrrolidin-1-yl)ethyl)amino)-5a,5b,8,8,11a-pentamethyl-1-(prop-1-en-2-yl)-2,3,3a,4,5,5a,5b,6,7,7a,8,11,11a,11b,12,13,13a,13b-octadecahydro-1H-cyclopenta[a]chrysen-9-yl)benzoic acid], `C=C(C)[C@@H]1CC[C@]2(N(C)C)CC[C@]3(C)[C@H](CC[C@@H]4[C@@]5(C)CC=C(c6ccc(C(=O)O)cc6)C(C)(C)[C@@H]5CC[C@]43C)[C@@H]12` [Example 177, 4-((1R,3aS,5aR,5bR,7aR,11aS,11bR,13aR,13bR)-3a-(dimethylamino)-5a,5b,8,8,11a-pentamethyl-1-(prop-1-en-2-yl)-2,3,3a,4,5,5a,5b,6,7,7a,8,11,11a,11b,12,13,13a,13b-octadecahydro-1H-cyclopenta[a]chrysen-9-yl)benzoic acid] is 2.2-fold higher in EC50: 0.004 µM for the first, 0.009 µM for the second.

Going from `C=C(C)[C@@H]1CC[C@]2(NCC3CCCN(C(=O)OC(C)(C)C)C3)CC[C@]3(C)[C@H](CC[C@@H]4[C@@]5(C)CC=C(c6ccc(C(=O)O)cc6)C(C)(C)[C@@H]5CC[C@]43C)[C@@H]12` (stereo partly drawn) [Example 174, 4-((1R,3aS,5aR,5bR,7aR,11aS,11bR,13aR,13bR)-3a-((1-(tert-butoxycarbonyl)piperidin-3-yl)methylamino)-5a,5b,8,8,11a-pentamethyl-1-(prop-1-en-2-yl)-2,3,3a,4,5,5a,5b,6,7,7a,8,11,11a,11b,12,13,13a,13b-octadecahydro-1H-cyclopenta[a]chrysen-9-yl)benzoic acid] to `C=C(C)[C@@H]1CC[C@]2(NCC3CCCNC3)CC[C@]3(C)[C@H](CC[C@@H]4[C@@]5(C)CC=C(c6ccc(C(=O)O)cc6)C(C)(C)[C@@H]5CC[C@]43C)[C@@H]12` (stereo partly drawn) [Example 175, 4-((1R,3aS,5aR,5bR,7aR,11aS,11bR,13aR,13bR)-5a,5b,8,8,11a-pentamethyl-3a-(piperidin-3-ylmethylamino)-1-(prop-1-en-2-yl)-2,3,3a,4,5,5a,5b,6,7,7a,8,11,11a,11b,12,13,13a,13b-octadecahydro-1H-cyclopenta[a]chrysen-9-yl)benzoic acid], the EC50 falls from 0.3 µM to 0.01 µM (30-fold). The second is the more potent here.

Same assay, conditions: luciferase activity in cells infected for 4-5 days with NLRluc recombinants, serial dilutions of inhibitor; class symbols (key in Table 1); read-out: EC50

`C=C(C)[C@@H]1CC[C@]2(NC)CC[C@]3(C)[C@H](CC[C@@H]4[C@@]5(C)CC=C(c6ccc(C(=O)O)cc6)C(C)(C)[C@@H]5CC[C@]43C)[C@@H]12` [Example 176, 4-((1R,3aS,5aR,5bR,7aR,11aS,11bR,13aR,13bR)-5a,5b,8,8,11a-pentamethyl-3a-(methylamino)-1-(prop-1-en-2-yl)-2,3,3a,4,5,5a,5b,6,7,7a,8,11,11a,11b,12,13,13a,13b-octadecahydro-1H-cyclopenta[a]chrysen-9-yl)benzoic acid, HCl] was tested, and the EC50 was under 0.1 µM.
